From patent EP0184291B1, “Polyether antibiotic A80190” (ELI LILLY AND COMPANY, priority 1984, dated 1986)
Values joined by “and” are separate entries in the source; they are usually repeats but may differ in a detail not shown here. Identical values can stand only once. Marks after values point to notes of the source that are not given here.

Legend:
Mycobacterium avium = assay: Disc-diffusion method; type: cell-based; conditions: 6-mm pads dipped in 1 mg of compound per ml, read-out: Zone of Inhibition (mm diameter)
Description: (§1) The inhibitory activity of A80190 is illustrated in Table VI. Activity was measured by the conventional disc-diffusion method (6-mm pads were dipped in solutions containing 1 mg of compound per ml of solution; pads were placed on agar plates seeded with test organism).

Candida albicans = assay: Disc-diffusion method; type: cell-based; conditions: 6-mm pads dipped in 1 mg of compound per ml, read-out: Zone of Inhibition (mm diameter)
Description: as §1

[1] = tested on: Saccharomyces pastorianus; assay: Disc-diffusion method; type: cell-based; conditions: 6-mm pads dipped in 1 mg of compound per ml, read-out: Zone of Inhibition (mm diameter)
Description: as §1

Neurospora crassa = assay: Disc-diffusion method; type: cell-based; conditions: 6-mm pads dipped in 1 mg of compound per ml, read-out: Zone of Inhibition (mm diameter)
Description: as §1

Bacillus subtilis = assay: Disc-diffusion method; type: cell-based; conditions: 6-mm pads dipped in 1 mg of compound per ml, read-out: Zone of Inhibition (mm diameter)
Description: as §1

Micrococcus luteus = assay: Disc-diffusion method; type: cell-based; conditions: 6-mm pads dipped in 1 mg of compound per ml, read-out: Zone of Inhibition (mm diameter)
Description: as §1

Staphylococcus aureus = assay: Disc-diffusion method; type: cell-based; conditions: 6-mm pads dipped in 1 mg of compound per ml, read-out: Zone of Inhibition (mm diameter)
Description: as §1

mustard = assay: Herbicidal activity; type: in vivo; conditions: 2 lb/acre (200 gpa), either pre-emergence or post-emergence
Description: (§2) In another aspect, the A80190 compounds have herbicidal activity. For example, A80190 is active against crabgrass, mustard and pigweed at 2 lb/acre (200 gpa) either pre-emergence or post-emergence.

pigweed = assay: Herbicidal activity; type: in vivo; conditions: 2 lb/acre (200 gpa), either pre-emergence or post-emergence
Description: as §2

crabgrass = assay: Herbicidal activity; type: in vivo; conditions: 2 lb/acre (200 gpa), either pre-emergence or post-emergence
Description: as §2

Eimeria tenella = assay: In vitro tissue culture anticoccidial screen; type: cell-based; conditions: Concentration 5 µg/ml
Description: Anticoccidial activity is an important property of the A80190 compounds. Table VIII summarizes the results of an in vitro tissue culture screen of A-80190 compounds vs. Eimeria tenella.

blowfly larvae = assay: Insecticidal activity; type: in vivo; conditions: read-out: active at levels as low as
Description: (§3) The A80190 compounds are also useful as insecticides and acaricides. For example, A80190 is active against the following insects as levels as low as the level indicated in parenthesis: mosquito larvae (<50 ppm), blowfly larvae (35 ppm), adult housefly (35 ppm), and Mexican bean beetle and southern armyworm (<100 ppm). A80190 is also active against mites such as two-spotted spider mite when applied at a rate as low as 25 ppm.

southern armyworm = assay: Insecticidal activity; type: in vivo; conditions: Spodoptera eridania; read-out: active at levels as low as
Description: as §3

[2] = tested on: volatile-fatty-acid (VFA) concentrations; assay: Ruminant feed-utilization efficiency test (VFA in flasks, method of U.S. Patent 3,794,732); parameters: species or system ruminants; conditions: ratio treated flasks to control flasks
Description: The efficiency of feed use can be monitored by observing the production and concentration of propionate compounds in the rumen using the method described by Arthur P. Raun in U.S. Patent 3,794,732 (see especially Example 5).

Work on `CC[C@@H](O)[C@]1(C)C[C@H](C)[C@@](O)([C@H]2C[C@H](C)[C@H]([C@]3(C)C[C@@H](O[C@H]4CC[C@H](OC)[C@@H](C)O4)[C@H]([C@@H]4CC[C@@]5(O[C@H]([C@@H](C)[C@@H](OC)[C@H](C)C(=O)O)[C@H](C)[C@@H](OC)[C@H]5C)O4)O3)O2)O1` [Example A80190] yielded a zone of inhibition at 1000 µg/mL (Mycobacterium avium) of 21 mm, a zone of inhibition at 1000 µg/mL (Candida albicans) of 14 mm and a zone of inhibition at 1000 µg/mL [1] of 10 mm. For the same compound, the zone of inhibition at 1000 µg/mL (Neurospora crassa) was 14 mm, the zone of inhibition at 1000 µg/mL (Bacillus subtilis) was 23 mm and the zone of inhibition at 1000 µg/mL (Micrococcus luteus) was 20 mm. For the same compound, the zone of inhibition at 1000 µg/mL (Staphylococcus aureus) was 17 mm, the herbicidal activity (mustard) was “active” and the herbicidal activity (pigweed) was “active”. For the same compound, the herbicidal activity (crabgrass) was “active”, the “Activity vs. Eimeria tenella In Vitro” value (Eimeria tenella) was “C^a” and the minimal effective concentration (blowfly larvae) was 35 µg/mL. For the same compound, the minimal effective concentration (southern armyworm) was less than 100 µg/mL, the “Molar % Acetate” value ([2]; Dosage 0.3 mcg/ml) was 0.970 and the “Molar % Butyrate” value ([2]; Dosage 0.3 mcg/ml) was 0.819. For the same compound, the “Molar % Propionate” value ([2]; Dosage 0.3 mcg/ml) was 1.220*, the “Total VFA/ Control VFA mM/L” value ([2]; Dosage 0.3 mcg/ml) was 0.967 and the “Molar % Acetate” value ([2]; Dosage 1 mcg/ml) was 0.926 and 0.986 and 0.892 and 1.016. For the same compound, the “Molar % Butyrate” value ([2]; Dosage 1 mcg/ml) was 0.529 and 0.851 and 0.813 and 0.706, the “Molar % Propionate” value ([2]; Dosage 1 mcg/ml) was 1.566* and 1.185* and 1.403* and 1.247* and the “Total VFA/ Control VFA mM/L” value ([2]; Dosage 1 mcg/ml) was 0.913 and 0.916 and 0.887 and 0.857. For the same compound, the “Molar % Acetate” value ([2]; Dosage 3 mcg/ml) was 0.998, the “Molar % Butyrate” value ([2]; Dosage 3 mcg/ml) was 0.611 and the “Molar % Propionate” value ([2]; Dosage 3 mcg/ml) was 1.368*. For the same compound, the “Total VFA/ Control VFA mM/L” value ([2]; Dosage 3 mcg/ml) was 0.963.
